Experimental data published in patent US20150079000A1, “Labelled Quinoxaline Derivatives as Multimodal Radiopharmaceuticals and Their Precursors” (INSTITUT NATIONAL DE LA SANTET DE LA RECHERCHE MEDICALE, priority 2012, published 2015).

Test system: melanoma B16F0 tumours
Assay: In vivo scintigraphic imaging of [125I]-labelled compounds
Parameters: species or system C57BL/6J mice
Settings: planar scintigraphy
Text: C57BL/6J male mice (6-8 weeks old) were obtained from Charles River (l'Arbresle, France) and the B 16F0 syngenic melanoma from ATCC (no. CRL-6322). Primary melanoma model was induced by subcutaneous injection of B 16F0 murine melanoma cells in C57BL/6J mice. B 16F0 melanoma cell cultures were maintained as monolayers in Dulbecco's Modified Eagle's Medium (DMEM)/Glutamax (Invitrogen, Cergy Pontoise, France) supplemented with 10% fetal calf serum (Sigma, Saint Quentin Fallavier, France), 1% vitamins (Invitrogen, Cergy-Pontoise, France), 1 mM sodium pyruvate (Invitrogen), 1% non essential amino acids (Invitrogen), and 4 μg/mL of gentamycin base (Invitrogen). Cells were grown at 37° C. in a humidified incubator containing 5% CO2. For transplantation, cells in exponential growth phase were trypsinized, washed with phosphate buffer saline (PBS), and resuspended in PBS. C57BL/6J mice anesthetized by isoflurane (2%) inhalation were inoculated with 3×10^5 melanoma B16F0 cells in 0.1 mL of PBS by subcutaneous injection on the right flank.
In vivo scintigraphic imaging protocol was submitted and approved by the french regional ethical animal use committee (CEMEA, Auvergne, authorization no. CE18-09, 2010). Scintigraphic imaging of radioiodinated compounds in mice was performed using a gamma camera dedicated to small animal imaging (γIMAGER, Biospace Mesures, Paris, France). This camera consists of a R 3292 Hamamatsu position-sensitive photomultiplier having a continuous 4 mm thick×120 mm diameter CsI (Na) crystal leading to a 10 cm field of view. For ^125I imaging, the camera was equipped with parallel-hole collimator 1.8/0.2/20 (hole diameter/septum thickness/height in mm). All the acquisitions were performed with a 15% window centered on the 35 keV peak of ^125I.
On day 14 after tumour implantation, each [^125I]-labelled compound was administered intravenously via the tail vein with 3.7 MBq/mouse (range 3-8 animals/compounds). The injected activity to each mouse was also determined from scintigraphic imaging of the syringe before and after the injection of the radiotracer. At different times after administration (1 h, 3 h, 6 h, 24 h, 72 h, 5 d, 7 d, 10 d and 14 d), mice were anaesthetized by i.p. administration (200 μL/mouse) of a ketamine-xylazine mixture in saline: ketamine (100 mg/kg, Imalgene, Rhône Merieux, Lyon, France) and xylazine (10 mg/kg, Rompun, Bayer, France). A 10 min duration image was acquired on anesthetized mice placed in prone position over the collimator of the camera. Reproducibility in animal positioning for the serial images was achieved using a graduated reference grid.
Quantitative analysis of scintigraphic scans was performed using the GAMMAVISION+ software (Biospace Mesures, Paris, France). Regions of interest (ROIs) were manually drawn around the tumour, the whole body area, the bladder, the eyes, the submaxillary and thyroid glands and the controlateral muscle which was chosen as background. For each ROI, total activity, min and max pixel values, ROI size (in mm^2), average activity per mm^2 and standard deviation were obtained. These values were normalized to the injected activity. For the tumour, the activity was also normalized to the tumour weight as previously described (Miot-Noirault, Cancer biotherapy & radiopharmaceuticals, 24 (2009) 629-636) and expressed as percentage of injected dose per gram of tumour (% ID/g).

Row | SMILES | % ID/g (tumour) (1 h after i.v. injection) | % ID/g (tumour) (3 h after i.v. injection) | % ID/g (tumour) (6 h after i.v. injection) | % ID/g (tumour) (24 h after i.v. injection) | % ID/g (tumour) (72 h after i.v. injection) | % ID/g (tumour) (5 d after i.v. injection) | % ID/g (tumour) (7 d after i.v. injection) | % ID/g (tumour) (10 d after i.v. injection) | % ID/g (tumour) (14 d after i.v. injection)
1 | CCN(CCNC(=O)c1cnc2cc([125I])ccc2n1)CCOCCOCCOCCF.Cl.Cl [[^125I]3] | 11.7 ± 2.2 % ID/g | 12.1 ± 1.7 % ID/g | 12.1 ± 1.9 % ID/g | 12.4 ± 2.3 % ID/g | 8.6 ± 3.6 % ID/g | 5.8 ± 2.4 % ID/g | 2.7 ± 0.8 % ID/g | 1.3 ± 0.4 % ID/g | 0.6 ± 0.3 % ID/g
2 | CCN(CCNC(=O)c1cnc2cc([125I])ccc2n1)CCOCCOCCOCCOCCOCCOCCOCCF [[^125I]5] | 6.8 ± 1.8 % ID/g | 7.8 ± 1.5 % ID/g | 7.2 ± 1.1 % ID/g | 6.8 ± 1.7 % ID/g | 3.8 ± 0.7 % ID/g | 2.7 ± 0.3 % ID/g | 1.5 ± 0.2 % ID/g | 0.8 ± 0.3 % ID/g | 0.3 ± 0.01 % ID/g
3 | CCN(CCNC(=O)c1cnc2cc([125I])ccc2n1)Cc1cn(CCF)nn1 [[^125I]7] | 13.0 ± 1.5 % ID/g | 14.5 ± 0.1 % ID/g | 15.9 ± 1.7 % ID/g | 15.6 ± 3.4 % ID/g | 11.0 ± 0.7 % ID/g | 8.6 ± 0.4 % ID/g | 5.3 ± 0.8 % ID/g | 3.7 ± 0.3 % ID/g | 1.8 ± 0.4 % ID/g
